Patent publication EP3510997B1, “SOFT GELATIN CAPSULES COMPRISING A SUSPENSION OF TADALAFIL” (Gap S.A., priority 2018, dated 2019)

Key:
[1] = Solubility studies of tadalafil in vegetable oils; format: physicochemical; conditions: such as olive oil, sunflower oil, safflower oil, soybean oil
Description: Suspension formulations of tadalafil were initially produced in soybean oil, and in a mixture of hydrogenated and partially-hydrogenated soybean oil in order to produce a stable suspension.

[2] = cited from earlier work

solubility in vegetable oils [1]: practically insoluble
Structure (SMILES): CN1CC(=O)N2[C@H](c3ccc4c(c3)OCO4)c3[nH]c4ccccc4c3C[C@@H]2C1=O [Tadalafil, (6R,12aR)-6-(Benzo[d][1,3]dioxol-5-yl)-2-methyl-2,3,12,12a]
solubility in ethanol and other organic solvents ([2]; ethanol and other organic solvents): very slightly soluble
solubility in water ([2]; water): practically insoluble
